Experimental data as given in patent US20260297083A1, “SUBSTITUTED ACETYLENE COMPOUND DERIVATIVES AND THEIR PHARMACEUTICAL USE” (AVELOS THERAPEUTICS INC., priority 2023, published 2026).

System: DLD-1 BRCA2(−/−) Cell
Test: Cell viability assay (Resazurin) in DLD1-BRCA2 cells
Format: cell-based
Conditions: 14 days, 1,500 cells/well, final DMSO 1%
Method in brief: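 DLD1-BRCA2 KG cells seeded at 1,500/well (parental 600/well) in RPMI-1640 with 10% FBS, compound added after 4 h (1% DMSO), media replaced every 3-4 days over 14 days at 37° C. Viability read by resazurin (0.1 mg/ml, 4 h) fluorescence at Ex/Em 560/590 nm; IC50 fitted.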

Row | IC50 [µM] | Molecule
1 | 1.1 to 5 | (S)-N-(3-(6-aminopyridazin-3-yl)prop-2-yn-1- yl)-2-(6-methyl-4-(trifluoromethyl)pyridin-2- yl)-N-(m-tolyl)isothiazolidine-3-carboxamide 1,1-dioxide [Example 19]

Same assay, conditions: Homo sapiens, DLD-1, 336 h, 14 days, 1,500 cells/well, final DMSO 1%

Row | Molecule | IC50 [µM]
2 | Cc1cc(C(F)(F)F)cc(N2C(=O)CC[C@H]2C(=O)N(CC#Cc2cnc(N3CCOCC3)cn2)c2ccc(F)c(C)c2)n1 [Example 10, (S)-N-(4-fluoro-3-methylphenyl)-1-(6-methyl-4-(trifluoromethyl)pyridin-2-yl)-N-(3-(5-morpholinopyrazin-2-yl)prop-2-yn-1-yl)-5-oxopyrrolidine-2-carboxamide] | < 1
3 | Cc1cc(C(F)(F)F)cc(N2C(=O)CC[C@H]2C(=O)N(CC#Cc2ccc(N)nn2)c2ccc(F)c(C)c2)n1 [Example 5, (2S)-N-(3-(6-aminopyridazin-3-yl)prop-2-ynyl]-N-(4-fluoro-3-methyl-phenyl)-1-[6-methyl-4-(trifluoromethyl)-2-pyridyl]-5-oxo-pyrrolidine-2-carboxamide] | < 1
4 | Cc1cc(C(F)(F)F)cc(N2[C@H](C(=O)N(CC#Cc3cnc(N4C[C@@H](C)O[C@@H](C)C4)cn3)c3ccc(F)c(C)c3)CCS2(=O)=O)n1 [Example 47, (S)-N-(3-(5-((2S,6R)-2,6-dimethylmorpholino)pyrazin-2-yl)prop-2-yn-1-yl)-N-(4-fluoro-3-methylphenyl)-2-(6-methyl-4-(trifluoromethyl)pyridin-2-yl)isothiazolidine-3-carboxamide 1,1-dioxide] | 1.1 to 5
5 | Cc1cc(C(F)(F)F)cc(N2C(=O)CC[C@H]2C(=O)N(CC#CCN2CCN(c3ncccn3)CC2)c2ccc(F)c(C)c2F)n1 [Example 16, (S)—N-(2,4-difluoro-3-methylphenyl)-1-(6-methyl-4-(trifluoromethyl)pyridin-2-yl)-5-oxo-N-(4-(4-(pyrimidin-2-yl)piperazin-1-yl)but-2-yn-1-yl)pyrrolidine-2-carboxamide] | 1.1 to 5
6 | Cc1ccc(F)c(N(CC#Cc2cnc(NC(C)C)cn2)C(=O)[C@@H]2CCS(=O)(=O)N2c2cc(C(F)(F)F)cc(C)n2)c1 [Example 37, (S)-N-(2-fluoro-5-methylphenyl)-N-(3-(5-(isopropylamino)pyrazin-2-yl)prop-2-yn-1-yl)-2-(6-methyl-4-(trifluoromethyl)pyridin-2-yl)isothiazolidine-3-carboxamide 1,1-dioxide] | 1.1 to 5
7 | Cc1cc(C(F)(F)F)cc(N2[C@H](C(=O)N(CC#Cc3ccc(=O)[nH]n3)c3ccc(F)c(C)c3)CCS2(=O)=O)n1 [Example 26, (S)-N-(4-fluoro-3-methylphenyl)-2-(6-methyl-4-(trifluoromethyl)pyridin-2-yl)-N-(3-(6-oxo-1,6-dihydropyridazin-3-yl)prop-2-yn-1-yl)isothiazolidine-3-carboxamide 1,1-dioxide] | < 1
8 | Cc1cc(C(F)(F)F)cc(N2[C@H](C(=O)N(CC#Cc3cnc(N4CCOCC4)c(N)n3)c3ccc(F)c(C)c3)CCS2(=O)=O)n1 [Example 44, (S)-N-(3-(6-amino-5-morpholinopyrazin-2-yl)prop-2-yn-1-yl)-N-(4-fluoro-3-methylphenyl)-2-(6-methyl-4-(trifluoromethyl)pyridin-2-yl)isothiazolidine-3-carboxamide 1,1-dioxide] | 1.1 to 5
9 | Cc1cc(C(F)(F)F)cc(N2[C@H](C(=O)N(CC#Cc3nccnc3C(N)=O)c3ccc(F)c(C)c3)CCS2(=O)=O)n1 [Example 64, (S)-N-(3-(3-carbamoylpyrazin-2-yl)prop-2-yn-1-yl)-N-(4-fluoro-3-methylphenyl)-2-(6-methyl-4-(trifluoromethyl)pyridin-2-yl)isothiazolidine-3-carboxamide 1,1-dioxide] | < 1
10 | Cc1ccc(F)c(N(CC#Cc2cnc(N3CCOCC3)cn2)C(=O)[C@@H]2CCS(=O)(=O)N2c2cc(C(F)(F)F)cc(C)n2)c1 [Example 40, (S)-N-(2-fluoro-5-methylphenyl)-2-(6-methyl-4-(trifluoromethyl)pyridin-2-yl)-N-(3-(5-morpholinopyrazin-2-yl)prop-2-yn-1-yl)isothiazolidine-3-carboxamide 1,1-dioxide] | 1.1 to 5
11 | Cc1cccc(N(CC#Cc2ccc(N)nn2)C(=O)[C@@H]2CCC(=O)N2c2cc(C(F)(F)F)cc(C)n2)c1 [Example 1, (S)—N-(3-(6-aminopyridazin-3-yl)prop-2-yn-1-yl)-1-(6-methyl-4-(trifluoromethyl)pyridin-2-yl)-5-oxo-N-(m-tolyl)pyrrolidine-2-carboxamide] | < 1

More lines, now with the values ahead:

Row | IC50 [µM] | Molecule
12 | < 1 | Cc1cc(C(F)(F)F)cc(N2[C@H](C(=O)N(CC#Cc3ccc(C(N)=O)nc3)c3ccc(F)c(C)c3)CCS2(=O)=O)n1 [Example 95, (S)-N-(3-(6-carbamoylpyridin-3-yl)prop-2-yn-1-yl)-N-(4-fluoro-3-methylphenyl)-2-(6-methyl-4-(trifluoromethyl)pyridin-2-yl)isothiazolidine-3-carboxamide 1,1-dioxide]
13 | 1.1 to 5 | Cc1cc(C(F)(F)F)cc(N2[C@H](C(=O)N(CC#Cc3cnc4c(c3)C(C)(C)N(C)C4=O)c3ccc(F)c(C)c3)CCS2(=O)=O)n1 [Example 99, (S)-N-(4-fluoro-3-methylphenyl)-2-(6-methyl-4-(trifluoromethyl)pyridin-2-yl)-N-(3-(5,5,6-trimethyl-7-oxo-6.7-dihydro-5H-pyrrolo[3,4-b]pyridin-3-yl)prop-2-yn-1-yl)isothiazolidine-3-carboxamide 1,1-dioxide]
14 | 1.1 to 5 | Cc1cc(C(F)(F)F)cc(N2[C@H](C(=O)N(CC#Cc3cccc(OC(F)F)n3)c3ccc(F)c(C)c3)CCS2(=O)=O)n1 [Example 89, (S)-N-(3-(6-(difluoromethoxy)pyridin-2-yl)prop-2-yn-1-yl)-N-(4-fluoro-3-methylphenyl)-2-(6-methyl-4-(trifluoromethyl)pyridin-2-yl)isothiazolidine-3-carboxamide 1,1-dioxide]
15 | < 1 | Cc1cc(C(F)(F)F)cc(N2[C@H](C(=O)N(CC#Cc3cnc(C(=O)N(C)C)cn3)c3ccc(F)c(C)c3)CCS2(=O)=O)n1 [Example 68, (S)-N-(3-(5-(dimethylcarbamoyl)pyrazin-2-yl)prop-2-yn-1-yl)-N-(4-fluoro-3-methylphenyl)-2-(6-methyl-4-(trifluoromethyl)pyridin-2-yl)isothiazolidine-3-carboxamide 1,1-dioxide]
16 | < 1 | Cc1cc(C(F)(F)F)cc(N2[C@H](C(=O)N(CC#Cc3ccc(C(=O)N(C)C)nc3)c3ccc(F)c(C)c3)CCS2(=O)=O)n1 [Example 111, (S)-N-(3-(6-(dimethylcarbamoyl)pyridin-3-yl)prop-2-yn-1-yl)-N-(4-fluoro-3-methylphenyl)-2-(6-methyl-4-(trifluoromethyl)pyridin-2-yl)isothiazolidine-3-carboxamide 1,1-dioxide]
17 | 1.1 to 5 | Cc1cc(C(F)(F)F)cc(N2[C@H](C(=O)N(CC#Cc3cccc(C(N)=O)c3)c3ccc(F)c(C)c3)CCS2(=O)=O)n1 [Example 106, (S)-N-(3-(3-carbamoylphenyl)prop-2-yn-1-yl)-N-(4-fluoro-3-methylphenyl)-2-(6-methyl-4-(trifluoromethyl)pyridin-2-yl)isothiazolidine-3-carboxamide 1,1-dioxide]
